Measurements as given in patent publication EP0097031B1, “Nonapeptide and decapeptide analogs of LHRH useful as LHRH antagonists, their preparation and compositions containing them” (SYNTEX (U.S.A.) INC., priority 1982, dated 1988).
dPhe(4-Cl) = N[C@H](Cc1ccc(Cl)cc1)C(=O)O; d2Nal = N[C@H](Cc1ccc2ccccc2c1)C(=O)O; dDeh = not defined here

tested on: female mice; assay: acute subcutaneous toxicity in mice (21-day observation); type: in vivo; conditions: administered subcutaneously to each of 6 female mice, 0.3 m.g. per animal (or 12 mg/kg body weight)
Protocol: Compounds 8,16,18,19 and 24 from Example 8 were administered subcutaneously to each of 6 female mice at a dose level of 0.3 m.g. per animal (or 12 mg/kg body weight). During an observation period of 21 days, no deaths were recorded in any of the treatment groups.
The acute subcutaneous LD50 in mice is thus greater than 12 mg/kg for these compounds.

Substance | deaths recorded during an observation period of 21 days
N-Ac-D-Nal(2)-D-p-F-Phe-D-Trp-Ser-Tyr-D-Deh-Leu-Arg-Pro-GlyNH2 [Compound 16] | no deaths
N-Ac-D-Nal(2)-D-p-Cl-Phe-D-Trp-Ser-Tyr-D-Deh-Leu-Arg-Pro-D-AlaNH2 [Compound 19] | no deaths
N-Ac-D-Nal(2)-D-p-Cl-Phe-D-Trp-Ser-Tyr-D-Deh-Leu-Arg-Pro-GlyNH2 ({Ac-d2Nal-dPhe(4-Cl)-dW-Ser-Tyr-dDeh}-LRPG-NH2; reading uncertain; also: printed as N-Ac-D-Nal(2)-D-p-Cl-Phe-D-Trp-Ser-Tyr-D-Deh-Leu-Arg-Pro-GlyNH2) [Compound 18] | no deaths
N-Ac-D-p-Cl-Phe-D-p-Cl-Phe-D-Trp-Ser-Tyr-D-Dph-Leu-Arg-Pro-D-AlaNH2 [Compound 8] | no deaths
